According to ChEMBL document CHEMBL2331554, “Exploring nature profits: development of novel and potent lipophilic antioxidants based on galloyl-cinnamic hybrids” (Eur J Med Chem, 2013):

How the values were obtained:
[1] = tested on: Radical scavenging activity; assay: Antioxidant activity assessed as inhibition of DPPH radical formation measured every min for 45 mins by spectrophotometric analysis; format: functional
[2] = Antioxidant activity assessed as inhibition of ABTS radical formation for 15 mins by spectrophotometric analysis; format: functional

Row | Molecule | IC50 [1] [µM] | inhibition [1] | IC50 [2] [µM] | inhibition [2]
1 | O=C(O)/C=C/c1cc(O)c(O)c(O)c1 | 11.8 | Dose-dependent effect | 7.2 | Dose-dependent effect
2 | CCOC(=O)C(=Cc1ccc(O)c(O)c1)C(=O)OCC | 21.9 | Dose-dependent effect | 21.1 | Dose-dependent effect
3 | CCOC(=O)/C=C/c1cc(O)c(O)c(O)c1 | 15.1 | Dose-dependent effect | 9 | Dose-dependent effect
4 | CCOC(=O)C(=Cc1cc(O)c(O)c(O)c1)C(=O)OCC | 12.8 | Dose-dependent effect | 7.7 | Dose-dependent effect
5 | O=C(O)/C=C/c1ccc(O)c(O)c1 [CAFFEIC ACID] | 18.1 | Dose-dependent effect | 17.9 | Dose-dependent effect
6 | CCOC(=O)/C=C/c1ccc(O)c(O)c1 [ETHYL CAFFEATE] | 26.6 | Dose-dependent effect | 22.6 | Dose-dependent effect
7 | O=C(O)c1cc(O)c(O)c(O)c1 [GALLIC ACID] | 9.9 | Dose-dependent effect | 7.8 | Dose-dependent effect
8 | Cc1c(C)c2c(c(C)c1O)CCC(C)(C(=O)O)O2 (stereo unspecified) [TROLOX] | 30.9 | Dose-dependent effect | 26.3 | Dose-dependent effect
9 | VITAMIN E [listing 1 of 2 here] | 31.1 |  | 26.8 | 
10 | VITAMIN E [listing 2 of 2 here] |  | Dose-dependent effect |  | Dose-dependent effect
